Reference: patent US20110318277A1, “TACROLIMUS COMPOSITIONS FOR AEROSOL ADMINISTRATION” (APT Pharmaceuticals, Inc. University of Maryland, Baltimore, priority 2010, published 2011)

Tests used:
[1] = Chemical stability of tacrolimus in ethanol as a function of concentration (HPLC); assay type: physicochemical; settings: 55 °C, 26 days
Method: The chemical stability of tacrolimus in ethanol at different concentrations ranging from 100 to 400 mg/ml when stored at 55° C. was investigated.
Samples were analyzed using reverse phase HPLC with an acetonitrile-water gradient and UV detection. Samples were prepared in a non-aqueous medium, i.e., acetonitrile, to limit the interconversion of tautomers and to promote stability. Column temperature was set at 60° C. to further promote equilibrium between the cis-trans isomers. The gradient was set at 5% acetronitrile with a run time of 20 minutes. Acetic acid (0.002%) was added to mobile phase A (water). A solution of tacrolimus in 1:1 acetonitrile-water was incubated at 55° C. for 45 minutes to obtain an equilibrium mixture of the 3 tautomers so that retention times of each tautomer could be obtained.

[2] = Chemical stability of tacrolimus in ethanol as a function of temperature; assay type: physicochemical; settings: 200 mg/ml in ethanol, around day 30
Method: The degradant levels contained in solutions of tacrolimus dissolved in ethanol at a fixed concentration of 200 mg/ml were determined over time as a function of temperature. Samples were stored at the following temperatures: 35° C., 45° C., and 55° C.

[3] = Aerosol exposure study of tacrolimus in rats, blood and lung pharmacokinetics; assay type: in vivo, male Sprague-dawley rats; settings: rat; for AUClast / Tmax: lung; for Cmax: 30 min aerosol exposure
Method: A total of 54 male Sprague-dawley rats of approximately 250 g body weight were exposed to aerosols of tacrolimus (in a propylene-glycol:ethanol mixture) generated by jet-nebulizer for 30 minutes. […] Estimated deposited doses for the 30 minute exposure (assuming 10% deposition efficiency) were 0.072 and 0.256 mg/kg for the “low” and “high” dose groups. Lung and blood samples were obtained for groups of animals (n=3/time point).

[4] = Particle size of jet-nebulized tacrolimus aerosol; assay type: physicochemical; settings: jet-nebulizer
[5] = Solubility of tacrolimus in ethanol and hydrofluoroalkanes; assay type: physicochemical
[6] = Aerosol exposure study of tacrolimus in rats, blood and lung pharmacokinetics; assay type: in vivo, male Sprague-dawley rats; settings: rat
calcineurin = settings: as a calcineurin inhibitor; Kino et al. 1987; cited from earlier work
[7] = male, Sprague-Dawley, inhaled or intranasal, blood, High Inhalation 0.256 mg/kg
[8] = male, Sprague-Dawley, inhaled or intranasal, blood, Low Inhalation 0.072 mg/kg
[9] = male, Sprague-Dawley, 0.4 mg/kg, blood, IV Bolus 0.400 mg/kg
[10] = male, Sprague-Dawley, 0.4 mg/kg, lung, IV Bolus 0.400 mg/kg

C=CC[C@@H]1/C=C(\C)C[C@H](C)C[C@H](OC)[C@H]2O[C@@](O)(C(=O)C(=O)N3CCCC[C@H]3C(=O)O[C@H](/C(C)=C/[C@@H]3CC[C@@H](O)[C@H](OC)C3)[C@H](C)[C@@H](O)CC1=O)[C@H](C)C[C@@H]2OC [tacrolimus, 17-allyl-1,14-dihydroxy-12-[2-(4-hydroxy-3-methoxycyclohexyl)-1-methylvinyl]-23,25-dimethyoxy-13,19,21,27-tetramethyl-11,28-dioxa-4-azatricyclo-[22.3.1.0^4,9]octacos-18-ene-2,3,10,16-tetraone]
degradation of tacrolimus ([1]; 100 mg/ml in ethanol): approximately 7% | degradation of tacrolimus ([1]; 400 mg/ml in ethanol): less than 1% | impurity level ([2]; stored at 35 °C): about 3% | impurity level ([2]; stored at 55 °C): about 11% | AUClast ([3]; High Inhalation 0.256 mg/kg): 22750 ng·h/g | AUClast ([3]; Low Inhalation 0.072 mg/kg): 19722 ng·h/g | Cmax [3, 7]: 149 ng/mL | AUC(0-t) [3, 7]: 194 ng·h/mL | Cmax [3, 8]: 40 ng/mL | AUC(0-t) [3, 8]: 121 ng·h/mL | half-life [3, 8]: 179 min | Tmax ([3]; male, Sprague-Dawley, inhaled or intranasal, High Inhalation 0.256 mg/kg): 4.98 min | Tmax ([3]; male, Sprague-Dawley, inhaled or intranasal, Low Inhalation 0.072 mg/kg): 4.98 min | MMAD (GSD) ([4]; 50 mg/ml solution in propylene-glycol:ethanol mixture): 2.53 (1.71) μm | MMAD (GSD) ([4]; 150 mg/ml solution in propylene-glycol:ethanol mixture): 2.56 (1.73) μm | solubility in ethanol ([5]; ethanol): readily soluble | solubility in hydrofluoroalkanes ([5]; hydrofluoroalkanes): essentially insoluble | AUClast ([6]; lung, IV Bolus 0.400 mg/kg): 334095 ng·h/g | AUC(0-t) [6, 9]: 179 ng·h/mL | Cmax [6, 9]: 78.2 ng/mL | Tmax [6, 9]: 4.98 min | half-life [6, 9]: 114 min | Cmax [6, 10]: 19100 ng/g | Tmax [6, 10]: 4.98 min | half-life [6, 10]: 1470 min | Tmax [6, 7]: 4.98 min | half-life [6, 7]: 104 min | Tmax [6, 8]: 4.98 min | Cmax ([6]; male, Sprague-Dawley, inhaled or intranasal, lung, High Inhalation 0.256 mg/kg, 30 min aerosol exposure): 18100 ng/g | half-life ([6]; male, Sprague-Dawley, inhaled or intranasal, lung, High Inhalation 0.256 mg/kg): 1400 min | Cmax ([6]; male, Sprague-Dawley, inhaled or intranasal, lung, Low Inhalation 0.072 mg/kg, 30 min aerosol exposure): 9960 ng/g | half-life ([6]; male, Sprague-Dawley, inhaled or intranasal, lung, Low Inhalation 0.072 mg/kg): 548 min | potency relative to cyclosporine (calcineurin): up to one hundred times more potent
